The supplement of paper PMC11061612

Legend:
AZD0156 = compound: CN(C)CCCOc1ccc(-c2ccc3ncc4c(c3c2)n(C2CCOCC2)c(=O)n4C)cn1 [AZD0156]; conditions: max 3 µM
Method in brief: (§1)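 Cancer cell lines were seeded into 1536-well plates in 7.5 μl medium (DMEM/F12 or RPMI, 10% FBS), held 24 hours at 37°C and 5% CO2, and dosed for 72 hours with final DMSO typically 0.2%. Luminescence from CellTiter-Glo 2.0, scaled between blank-well and DMSO-well means, served as viability. The single-agent IC50 was obtained from dose-response fits with a non-linear mixed effects model, each fit being a two-parameter logistic curve.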

Savolitinib = compound: C[C@@H](c1ccc2nccn2c1)n1nnc2ncc(-c3cnn(C)c3)nc21 [Savolitinib]; conditions: max 1 µM
Method in brief: as §1

AZD7648 = compound: Cc1cc2ncnn2cc1Nc1ncc2c(n1)n(C1CCOCC1)c(=O)n2C [AZD7648]; conditions: max 10 µM
Method in brief: as §1

Trametinib = compound: CC(=O)Nc1cccc(-n2c(=O)n(C3CC3)c(=O)c3c(Nc4ccc(I)cc4F)n(C)c(=O)c(C)c32)c1 [Trametinib]; conditions: max 1 µM
Method in brief: as §1

AZD5991 = compound: Cc1c2c(nn1C)CSCc1cc(n(C)n1)CSc1cc(c3ccccc3c1)OCCCc1c(C(=O)O)n(C)c3c-2c(Cl)ccc13 [AZD5991]; conditions: max 1 µM
Method in brief: as §1

Alisertib = compound: COc1cc(Nc2ncc3c(n2)-c2ccc(Cl)cc2C(c2c(F)cccc2OC)=NC3)ccc1C(=O)O [Alisertib]; conditions: max 10 µM
Method in brief: as §1

Venetoclax = compound: CC1(C)CCC(CN2CCN(c3ccc(C(=O)NS(=O)(=O)c4ccc(NCC5CCOCC5)c([N+](=O)[O-])c4)c(Oc4cnc5[nH]ccc5c4)c3)CC2)=C(c2ccc(Cl)cc2)C1 [Venetoclax]; conditions: max 1 µM
Method in brief: as §1

Capivasertib = compound: C1CN(CCC1(C(=O)N[C@@H](CCO)C2=CC=C(C=C2)Cl)N)C3=NC=NC4=C3C=CN4 [Capivasertib]
Method in brief: as §1

Selumetinib = compound: Cn1cnc2c(F)c(Nc3ccc(Br)cc3Cl)c(C(=O)NOCCO)cc21 [Selumetinib]; conditions: max 10 µM
Method in brief: as §1

Taselisib = compound: Cc1nc(-c2cn3c(n2)-c2ccc(-c4cnn(C(C)(C)C(N)=O)c4)cc2OCC3)n(C(C)C)n1 [Taselisib]; conditions: max 10 µM
Method in brief: as §1

AZD6738 = compound: C[C@@H]1COCCN1C2=NC(=NC(=C2)C3(CC3)[S@](=N)(=O)C)C4=C5C=CNC5=NC=C4 [AZD6738]; conditions: max 10 µM
Method in brief: as §1

SN-38 = compound: CCc1c2c(nc3ccc(O)cc13)-c1cc3c(c(=O)n1C2)COC(=O)[C@]3(O)CC [SN-38]; conditions: max 0.3 µM
Method in brief: as §1

Palbociclib = compound: CC(=O)c1c(C)c2cnc(Nc3ccc(N4CCNCC4)cn3)nc2n(C2CCCC2)c1=O [Palbociclib]; conditions: max 10 µM
Method in brief: as §1

Prexasertib = compound: COc1cccc(OCCCN)c1-c1cc(Nc2cnc(C#N)cn2)n[nH]1 [Prexasertib]; conditions: max 1 µM
Method in brief: as §1

Dasatinib = compound: CC1=C(C(=CC=C1)Cl)NC(=O)C2=CN=C(S2)NC3=CC(=NC(=N3)C)N4CCN(CC4)CCO [Dasatinib]; conditions: max 2 µM
Method in brief: as §1

AZD4320 = compound: CN(CC[C@H](CSC1=CC=CC=C1)NC2=C(C=C(C=C2)S(=O)(=O)NC(=O)C3=CC=C(C=C3)N4CCC(CC4)[C@H](C5=CC=CC=C5C6=CC=C(C=C6)Cl)O)S(=O)(=O)C(F)(F)F)CCO [AZD4320]; conditions: max 1 µM
Method in brief: as §1

AZD8186 = compound: C[C@@H](Nc1cc(F)cc(F)c1)c1cc(C(=O)N(C)C)cc2c(=O)cc(N3CCOCC3)oc12 [AZD8186]; conditions: max 3 µM
Method in brief: as §1

AZD2811 = compound: CCN(CCO)CCCOc1ccc2c(Nc3cc(CC(=O)Nc4cccc(F)c4)[nH]n3)ncnc2c1 [AZD2811]; conditions: max 1 µM
Method in brief: as §1

Crizotinib = compound: C[C@@H](Oc1cc(-c2cnn(C3CCNCC3)c2)cnc1N)c1c(Cl)ccc(F)c1Cl [Crizotinib]; conditions: max 10 µM
Method in brief: as §1

AZD5153 = compound: COc1nnc2ccc(N3CCC(c4ccc(OCCN5CCN(C)C(=O)[C@H]5C)cc4)CC3)nn12 [AZD5153]; conditions: max 1 µM
Method in brief: as §1

Lapatinib = compound: CS(=O)(=O)CCNCc1ccc(-c2ccc3ncnc(Nc4ccc(OCc5cccc(F)c5)c(Cl)c4)c3c2)o1 [Lapatinib]; conditions: max 10 µM
Method in brief: as §1

AZD1390 = compound: CC(C)n1c(=O)n(C)c2cnc3cc(F)c(-c4ccc(OCCCN5CCCCC5)nc4)cc3c21 [AZD1390]; conditions: max 0.3 µM
Method in brief: as §1

SG3199 = compound: CC1=CN2[C@@H](C1)C=NC3=CC(=C(C=C3C2=O)OC)OCCCCCOC4=C(C=C5C(=C4)N=C[C@@H]6CC(=CN6C5=O)C)OC [SG3199]; conditions: max 0.001 µM
Method in brief: as §1

AZD1775 = compound: C=CCn1c(=O)c2cnc(Nc3ccc(N4CCN(C)CC4)cc3)nc2n1-c1cccc(C(C)(C)O)n1 [AZD1775]; conditions: max 3 µM
Method in brief: as §1

Doxorubicin = compound: COc1cccc2c1C(=O)c1c(O)c3c(c(O)c1C2=O)C[C@@](O)(C(=O)CO)C[C@@H]3O[C@H]1C[C@H](N)[C@H](O)[C@H](C)O1 [Doxorubicin]; conditions: max 1 µM
Method in brief: as §1

Gefitinib = compound: COc1cc2ncnc(Nc3ccc(F)c(Cl)c3)c2cc1OCCCN1CCOCC1 [Gefitinib]; conditions: max 10 µM
Method in brief: as §1

Olaparib = compound: O=C(c1cc(Cc2n[nH]c(=O)c3ccccc23)ccc1F)N1CCN(C(=O)C2CC2)CC1 [Olaparib]
Method in brief: as §1

Row | Cell Line | IC50, cell viability 72 h (AZD0156) [µM] | IC50, cell viability 72 h (Savolitinib) [µM] | IC50, cell viability 72 h (AZD7648) [µM] | IC50, cell viability 72 h (Trametinib) [µM] | IC50, cell viability 72 h (AZD5991) [µM] | IC50, cell viability 72 h (Alisertib) [µM] | IC50, cell viability 72 h (Venetoclax) [µM] | IC50, cell viability 72 h (Capivasertib; max 10 µM) [µM] | IC50, cell viability 72 h (Selumetinib) [µM] | IC50, cell viability 72 h (Taselisib) [µM] | IC50, cell viability 72 h (AZD6738) [µM] | IC50, cell viability 72 h (SN-38) [µM] | IC50, cell viability 72 h (Palbociclib) [µM] | IC50, cell viability 72 h (Prexasertib) [µM] | IC50, cell viability 72 h (Dasatinib) [µM] | IC50, cell viability 72 h (AZD4320) [µM] | IC50, cell viability 72 h (AZD8186) [µM] | IC50, cell viability 72 h (AZD2811) [µM] | IC50, cell viability 72 h (Crizotinib) [µM] | IC50, cell viability 72 h (AZD5153) [µM] | IC50, cell viability 72 h (Lapatinib) [µM] | IC50, cell viability 72 h (AZD1390) [µM] | IC50, cell viability 72 h (SG3199) [µM] | IC50, cell viability 72 h (AZD1775) [µM] | IC50, cell viability 72 h (Doxorubicin) [µM] | IC50, cell viability 72 h (Gefitinib) [µM] | IC50, cell viability 72 h (Olaparib; max 10 µM) [µM] | IC50, cell viability 72 h (Capivasertib; max 3 µM) [µM] | IC50, cell viability 72 h (Olaparib; max 3 µM) [µM]
1 | HT-1197 (Bladder Carcinoma) | > 3 | > 1 | > 10 | > 1 | > 1 | > 10 | > 1 | > 10 | > 10 | 2.89 | > 10 | > 0.3 | > 10 | > 1 | > 2 | > 1 | > 3 | > 1 | > 10 | 0.697 | > 10 | > 0.3 | > 0.001 | 2.15 | > 1 | > 10 | > 10 | – | –
2 | IGROV-1 (Ovarian Carcinoma) | > 3 | > 1 | > 10 | 0.0196 | > 1 | 1.63 | > 1 | 0.438 | 1.07 | 0.0172 | 2.9 | 0.177 | 5.56 | 0.054 | 0.0169 | > 1 | 1.32 | > 1 | 9.83 | 0.39 | 0.764 | > 0.3 | > 0.001 | 0.191 | 0.924 | 1.55 | > 10 | – | –
3 | JURL-MK1 (Chronic Myelogenous Leukemia) | > 3 | > 1 | > 10 | 0.00576 | 0.778 | 0.297 | > 1 | > 10 | 0.339 | > 10 | 0.228 | 0.0098 | 0.248 | 0.00255 | < 0.002 | 0.322 | > 3 | > 1 | 0.32 | 0.0613 | > 10 | > 0.3 | > 0.001 | 0.0851 | 0.115 | > 10 | > 10 | – | –
4 | M14 (Melanoma) | > 3 | – | – | – | – | – | – | – | – | – | – | – | – | – | – | – | – | – | – | – | – | – | – | 0.624 | – | – | – | > 3 | > 3
5 | NCI-H1048 (Small Cell Lung Carcinoma) | > 3 | > 1 | > 10 | > 1 | – | 0.497 | > 1 | 9.21 | > 10 | 0.348 | > 10 | 0.00299 | > 10 | 0.132 | > 2 | 0.505 | > 3 | 0.323 | > 10 | > 1 | > 10 | > 0.3 | > 0.001 | 0.798 | 0.261 | > 10 | > 10 | – | –
